Experimental data from US5859016A, “Memory enhancing and anti-dementia agent containing dehydroevodiamine HC1 as active ingredient” (priority 1995, dated 1999).
Structures can show the parent of a compound that is named as a salt.

Tests used:
AChE = molecular target: T1, AChE (Mus musculus, UniProt P21836); assay: Determination of AChE inhibitory activity (Ellman reagent, acetylthiocholine iodide); format: biochemical, mice
T1 construct: The resulting supernatant was used as an AChE source; from tissue; host or cells: mouse cerebral cortex (detergent-extracted supernatant)
T1 sequence (P21836 32-614): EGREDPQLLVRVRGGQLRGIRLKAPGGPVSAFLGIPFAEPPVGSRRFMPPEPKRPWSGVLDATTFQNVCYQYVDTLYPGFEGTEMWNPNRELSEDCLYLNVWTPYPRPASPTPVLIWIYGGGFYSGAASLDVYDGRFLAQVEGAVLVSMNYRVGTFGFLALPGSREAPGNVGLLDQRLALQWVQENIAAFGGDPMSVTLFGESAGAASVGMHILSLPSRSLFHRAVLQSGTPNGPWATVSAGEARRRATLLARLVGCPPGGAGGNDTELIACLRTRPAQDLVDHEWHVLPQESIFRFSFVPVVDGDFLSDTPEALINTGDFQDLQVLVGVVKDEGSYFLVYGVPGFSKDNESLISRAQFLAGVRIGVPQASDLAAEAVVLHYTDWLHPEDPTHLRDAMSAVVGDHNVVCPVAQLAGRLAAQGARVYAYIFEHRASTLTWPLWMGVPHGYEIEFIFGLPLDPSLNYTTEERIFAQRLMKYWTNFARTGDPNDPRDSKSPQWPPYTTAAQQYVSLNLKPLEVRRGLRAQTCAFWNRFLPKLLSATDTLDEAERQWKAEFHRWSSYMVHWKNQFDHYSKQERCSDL
Procedure: In order to determine AChE inhibitory activity on each of the 20 subfractions obtained from EXAMPLE 1, 10 volumes of phosphate buffer solution (12.5 mM phosphate buffer solution at pH 7.0, including 400 mM NaCl) was added to the cerebral cortex of mice, homogenized in a Potter-Elvehjem homogenizer and centrifuged at 1,000 g for 10 min to obtain the supernatant. After adding homogenized buffer containing 0.5% triton X-100 to the supernatant, the mixtures were stirred for 30 min and centrifuged again at 10,000 for 10 min. The resulting supernatant was used as an AChE source. All extract steps were carried out at 4° C.
The freeze-dried 20 subfraction extracts of EXAMPLE 1 were initially dissolved in small amounts of distilled water and DMSO. The solution was diluted at a concentration of 200 μg/ml in phosphate buffer (100 mM sodium phosphate, pH 8.0; hereinafter called "buffer solution I"). 1.5 ml of each extract was mixed with 1.5 ml of buffer solution I, 20 μl of 75 mM acetylthiocholine iodide solution and 100 μl of buffered Ellmans reagent [10 mM DTNB (5,5-dithiobis-(2-nitrobenzoic acid)) and 17.85 mM NaHCO3 ] and incubated at 25° C. for 10 min. Absorbance was read at 410 nm immediately after adding an enzyme to the above reaction mixtures. Reading was repeated for 5 min at 30 sec intervals in order to determine AChE inhibitory activity on each subfraction. A blank control reaction was measured by substituting saline for the enzyme.
AChE activity was calculated with the absorption coefficient […]. The inhibition efficacy was expressed as a percentage of enzyme activity inhibited compared with the control value (100%).
All experiments were repeated five times, and the results were analyzed by a Wilcoxon-rank sum test and Median 2-sample test.

[1] = test system: scopolamine induced amnesia; assay: Passive avoidance test, scopolamine induced amnesia; format: in vivo; conditions: rats
Procedure: Male Sprague-Dawley rates weighing 200~250 g (12~16 weeks) which had been maintained on a 12 h/12 h light-dark cycle were used for a passive avoidance test. Food and water were available ad libitum. An automated system with a shuttle box (Model PACS-30, Columbus Instruments International Company) was used to evaluate the effects of the extracts on learning and memory essentially as described (11). The shuttle box was divided into two chambers of equal size (19"L×9"W×10.875"H). These compartments were separated by a guillotine door (3" L×2.625" W). A light chamber is equipped with an illuminator. Rats can go to the dark chamber through a guillotine door. […]
At 24 hours after the training trial, scopolamine (1 mg/kg) or the same volume of saline was intraperitoneally injected to the rats. […] At 24 hours after the acquisition trial, the rat was again placed in the light compartment and latency to enter the dark compartment was measured for 180 sec (retention trial).
To investigate the effects of repeated administration of DHED, a repeated administration of DHED was intraperitoneally given to the rats at a dose of 6.25 mg/kg. Except for the fact that DHED (6.25 mg/kg) was given to the rats once a day for 5 days before the treatment with scopolamine, the latency time was measured in the same manner as in the single administration.

[2] = Single toxicity study, lethality by a single oral administration; format: in vivo, rats; conditions: rat, in vivo; after a single administration (oral)
Procedure: (§1) A single toxicity study of the anti-dementia agent according to this invention was measured using rats. […] The lethality results by a single oral administration of DHED are as follows: […]

rats = assay: as above; format: in vivo; conditions: single oral, 14 days
Procedure: as §1

## C[n+]1c2n(c(=O)c3ccccc31)CCc1c-2[nH]c2ccccc12 [DHED, dehydroevodiamine-HCl]
AChE; AChE source from cerebral cortex of mice, FIG. 3, read-out: concentration required for 50% enzyme inhibition (IC50) of AChE
  IC50: 37.8 µM
AChE; FIG. 3
  inhibitory effect on AChE, dose dependence: strong inhibitory effect on AChE in a dose-dependent manner
AChE; substrate 23 to 230 μM, DHED 40 μM, FIG. 4
  manner of AChE inhibition (Lineweaver-Burke plots): non-competitive
[1]; 6.25 mg/kg intraperitoneally once a day for 5 days before scopolamine 1 mg/kg, FIG. 6
  memory enhancement (latency in retention trial), repeated administration: may improve memory enhancement
[1]; 6.25 mg/kg intraperitoneally, single, scopolamine 1 mg/kg, FIG. 5
  memory enhancement (latency in retention trial), single administration: significant memory enhancement
[2]
  LD50: 2000 mg/kg
rats; female, 1,000 mg/kg
  Mortality: 1/5
rats; female, 1,500 mg/kg
  Mortality: 2/5
rats; female, 2,000 mg/kg
  Mortality: 0/5
rats; female, 3,000 mg/kg
  Mortality: 5/5
rats; female, 4,000 mg/kg
  Mortality: 5/5
rats; male, 1,000 mg/kg
  Mortality: 0/5
rats; male, 1,500 mg/kg
  Mortality: 0/5
rats; male, 2,000 mg/kg
  Mortality: 5/5
rats; male, 3,000 mg/kg
  Mortality: 4/5
rats; male, 4,000 mg/kg
  Mortality: 5/5
